This passage reports LD50 and inhibition in vivo results from patent publication US4294843A, “Anti-protozoal oxadiazole derivatives” (Burroughs Wellcome Co., priority 1978, dated 1981).

Data set [1] is described as follows: LD50 in female rats, oral by gavage. Particulars: rat, in vivo, 10% w/v suspension in corn oil. As to the method:
1. The LD50 of the compound of Example 3, both as the free base and the hydrochloride salt was determined in female rats by standard techniques the compound being administered as a 10% w/v suspension in corn oil orally by gavage.

Another data set is described as follows: LD50 in mice, oral. The following applies: mouse, in vivo, suspension of 0.25% Celacol. Here is the method:
2. The LD50 of the compound of Example 3 was determined in mice by standard techniques, the compound being administered orally in a suspension of 0.25% Celacol.

The next data set deals with P. berghei. Put plainly: percentage inhibition of P. berghei (blood parasitaemia) in mice, seven oral doses. The following applies: Plasmodium berghei, 96 h, 7 × 10 mg/kg oral, parasitaemia on fourth day. In kind it is in vivo. The text has this: Groups of five mice were inoculated intraperitoneally with the normal strain of P. berghei. The mice on test received seven oral doses of drug beginning on the afternoon of the day of infection then twice a day for the following three days. Blood parasitaemias were estimated on the fourth day and compared with those of the untreated controls.
The results are given in Table 1, the results being expressed as percentage inhibition of P. berghei.

With `Cl.Nc1ccccc1SCc1ncon1` [Example 3 - HCl salt, 3-(2-Aminophenylthiomethyl)-1,2,4-oxadiazole hydrochloride], the LD50 (commonly the dose at which mortality reaches 50%) in data set [1] stood at 63 mg/kg. Take `Nc1ccccc1SCc1ncon1` [Example 3, 3-(2-Aminophenylthiomethyl)-1,2,4-oxadiazole]: the LD50 in “LD50 in mice, oral” was around 45 mg/kg; in data set [1], 79.4 mg/kg. Consider `Nc1cc(Cl)ccc1SCC1=NOCN1` [Example 52, 3-(2-Amino-4-chlorophenylthiomethyl)-4,5-dihydro-1,2,4-oxadiazole], for which the inhibition in vivo (as a rule, how much of the control response was suppressed) at 10 mg/kg in the data set with P. berghei turned out to be 95%. For the compound `CN(C)c1ccccc1SCC1=NOCN1` [Example 53, 3-(2-Dimethylaminophenylthiomethyl)-4,5-dihydro-1,2,4-oxadiazole], the inhibition in vivo at 10 mg/kg with P. berghei was 43%. Same read-out and setting: to `CN(C)c1ccccc1SCC(N)=NO` [Example 56, 2-(2-Dimethylaminophenylthio)acetamidoxime] belongs 100%.
